Results from patent US20160235806A1, “Novel Peptide Compound for Inhibiting Restenosis and Promoting Re-Endothelialization and Method for Preparing the Same” (Chonnam National University Hospital, priority 2014, published 2016).

Tested on: vascular smooth muscle cell (SMC)
Experiment: Effect on proliferation of vascular smooth muscle cell (SMC), XTT assay
Format: cell-based
Conditions: 1 uM; 1, 4, and 7 days; vs non-treated control that continuously grew until 7 days
Procedure: As cells used in a cell culture, the vascular smooth muscle cell (SMC) which is a smooth muscle cell, and the human umbilical vein endothelial cell (HUVEC) which is the cell for promoting vascular re-endothelialization were purchased from Korea Cell Line Bank, respectively. The cell culture was performed by culturing the vascular smooth muscle cell (SMC) and the human umbilical vein endothelial cell (HUVEC) in Dulbecoco's modified eagle medium (DMEM) with 10% fetal bovine serum (FBS) under conditions of 37° C. and 5% CO2. […]
(§1) 5×10^4 of SMC cells cultured according to Example 2 were cultured in the 24-well cell culture plate and then treated with 1 uM of the peptide compound prepared by Example 2 (hereinafter, referred to as ‘EVR-P’). […] After the reaction, 200 ul of the culture medium was transferred from each well to a 96 well cell culture dish, and degree of color change was measured from absorbance at a 450 nm wavelength by a spectroscopy.
as §1, with “the known Everolimus (EVR)(LC Laboratories).” for “the peptide compound prepared by Example 2 (hereinafter, referred to as ‘EVR-P’).”, “to the” for “to a”

In the case of `CO[C@H]1C[C@@H]2CC[C@@H](C)[C@@](O)(O2)C(=O)C(=O)N2CCCC[C@H]2C(=O)O[C@H]([C@H](C)C[C@@H]2CC[C@@H](OCCO)[C@H](OC)C2)CC(=O)[C@H](C)/C=C(\C)[C@@H](O)[C@@H](OC)C(=O)[C@H](C)C[C@H](C)/C=C/C=C/C=C/1C` [EVR, Everolimus], the “SMC cell proliferation (XTT, absorbance at 450 nm)” value is reported as “cell proliferation was inhibited”.
